One assay has as its target T1, GNRR-3 (Caenorhabditis elegans, UniProt Q23265).
T1 sequence (Q23265 1-395): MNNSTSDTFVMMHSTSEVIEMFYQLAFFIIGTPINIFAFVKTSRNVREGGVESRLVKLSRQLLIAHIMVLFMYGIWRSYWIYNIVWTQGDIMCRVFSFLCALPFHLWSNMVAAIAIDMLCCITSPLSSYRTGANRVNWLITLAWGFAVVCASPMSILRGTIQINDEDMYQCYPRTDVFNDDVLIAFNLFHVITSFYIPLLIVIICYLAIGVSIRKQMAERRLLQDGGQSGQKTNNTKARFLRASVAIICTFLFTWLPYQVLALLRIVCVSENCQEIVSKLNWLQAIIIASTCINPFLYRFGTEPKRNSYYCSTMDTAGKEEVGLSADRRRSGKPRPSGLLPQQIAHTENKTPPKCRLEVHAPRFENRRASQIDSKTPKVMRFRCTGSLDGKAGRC
In words: Receptor activation assay (aequorin calcium mobilization), GNRR-3 co-expressed with promiscuous Gα16 in CHO cells. The class given is cell-based, C. elegans. The following applies: for EC50: CHO cells stably expressing apo-aequorin and Gα16, transiently transfected receptor, aequorin luminescence relative to total calcium response, mean EC50, N = 5–7 replicates, 95% confidence interval given; for Activation of GNRR-3 (in words): CHO/apo-aequorin/Gα16 calcium mobilization assay, peptides initially tested at 10 µM. An excerpt: (§1) We tested a C. elegans peptide library for the ability to activate these seven receptors using an in vitro calcium mobilization assay. We cloned and transiently expressed each of the seven GNRRs in Chinese hamster ovary (CHO) cells stably expressing apo-aequorin and the human promiscuous Gα16 protein. These cells were challenged with a synthetic library of over 340 C. elegans peptides of the RFamide (FLP) and neuropeptide-like protein (NLP) families. […] Peptides encoded by nlp-2 and nlp-23 potently activated GNRR-3 with EC50 values in the nanomolar range. By contrast, NLP-22 activated GNRR-3 with far lower potency (EC50 value > 6 µM), which may be physiologically irrelevant. GNRR-6 was potently activated by NLP-22 and NLP-23 peptides. Peptides encoded by nlp-2 also activated GNRR-6, although with a higher EC50 value than NLP-22 and NLP-23. […] In short, we identified the neuropeptides encoded by nlp-2, nlp-22 and nlp-23 as bioactive ligands of the GnRH/AKH-like receptors GNRR-3 and GNRR-6 in vitro.
(§2) Figure 2 NLP-2, NLP-22, and NLP-23 peptides activate GNRR-3 and GNRR-6 in vitro. Dose-response curves for GNRR-3 (A) and GNRR-6 (B) co-expressed in CHO cells with a promiscuous Gα16 protein are shown as relative (%) to the highest value (100% activation) after normalization to the total calcium response. Each data point represents the mean ± SEM of N = 5–7 replicates for each peptide. (C) Amino acid (AA) sequences of RPamide neuropeptides activating GNRR-3 and GNRR-6 with their respective mean EC50 values and 95% Confidence intervals.
(§3) Peptides were custom-synthesized by GL Biochem Ltd. All peptides were initially tested at a concentration of 10 µM. Receptor activating peptides were purified using reverse-phase HPLC and verified using MALDI TOF mass spectrometry. Peptide concentrations were determined with a bicinchoninic acid (BCA) assay. For receptor activation assays, peptides were first lyophilized and then diluted to the desired concentrations.
(§4) Chinese hamster ovary (CHO) cells stably expressing apo-aequorin and the promiscuous Gα16 subunit were used for receptor deorphanization (ES-000-A24, Perkin-Elmer). To characterize downstream signaling, CHO cells stably expressing apo-aequorin but lacking the promiscuous Gα16 protein were used (ES-000-A12, Perkin-Elmer). Cells were cultured in Dulbecco’s Modified Eagle’s Medium Nutrient Mixture Ham F-12 (DMEM/F-12, Invitrogen) to which 1% penicillin/streptomycin, 2.5 µg/ml amphotericin B, and 10% fetal bovine serum (Sigma-Aldrich) were added. Growth medium was supplemented with 250 µg/ml zeocin or 5 µg/ml puromycin, which serves as a selection reagent for CHO cells with or without the promiscuous Gα16 subunit, respectively. Cells were grown as a monolayer at 37 °C, 5% CO2 and high humidity. For transfection, 3.75 ml Opti-MEM I (Invitrogen), 7.5 µg pcDNA3.1 construct and 18.75 µl Plus reagent (Invitrogen) were gently mixed in a polystyrene tube. After incubation for 5 minutes at room temperature, 45 µl Lipofectamine LTX (Invitrogen) was added and gently mixed. The transfection reagent was incubated for 30 min at room temperature. Growth medium was removed leaving 3 ml and the transfection reagents were added dropwise to the cells. Transfected cells were grown overnight and 20 ml growth medium was added the next day. Cells were grown one more day before the assay at 28 °C.
(§5) Two days after transfection, CHO cells were detached from the surface of the culture flask using phosphate buffered saline with 0.2% EDTA and collected in 10 ml colorless DMEM/F-12 (11039, Gibco). Cell viability was measured using a NucleoCounter NC-100 (Chemometic). Cells were pelleted for 4 min at 800 rpm at room temperature and resuspended to a concentration of 5 × 10^6 cells/ml in colorless DMEM/F12 with 0.1% bovine serum albumin (BSA). 5 µM coelenterazine H (Invitrogen) was added to the cell suspension. […]
For orientation: Calcium assays in cells follow changes in intracellular calcium, usually with a dye or a luminescent sensor.

In the next assay the target is T2, GNRR-6 (Caenorhabditis elegans, UniProt Q19399).
T2 sequence (Q19399 1-400): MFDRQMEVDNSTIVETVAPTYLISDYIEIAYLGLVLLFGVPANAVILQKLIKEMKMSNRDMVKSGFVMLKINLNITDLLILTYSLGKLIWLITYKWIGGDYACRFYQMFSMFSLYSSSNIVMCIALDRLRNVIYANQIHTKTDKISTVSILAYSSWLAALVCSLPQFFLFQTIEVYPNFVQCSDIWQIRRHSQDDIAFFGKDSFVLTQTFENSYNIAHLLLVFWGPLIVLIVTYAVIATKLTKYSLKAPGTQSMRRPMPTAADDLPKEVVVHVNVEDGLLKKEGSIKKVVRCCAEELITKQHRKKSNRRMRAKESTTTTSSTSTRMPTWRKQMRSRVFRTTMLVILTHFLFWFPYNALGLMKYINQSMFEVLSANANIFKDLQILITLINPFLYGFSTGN
In words: Receptor activation assay (aequorin calcium mobilization), GNRR-6 co-expressed with promiscuous Gα16 in CHO cells. The following applies: for EC50: CHO cells stably expressing apo-aequorin and Gα16, transiently transfected receptor, aequorin luminescence relative to total calcium response, mean EC50, N = 5–7 replicates, 95% confidence interval given; for Activation of GNRR-6 (in words): CHO/apo-aequorin/Gα16 calcium mobilization assay, peptides initially tested at 10 µM. The class given is cell-based, C. elegans.
Text: as §1, §2, §3, §4, §5

The text below walks through data of publication PMC7303124, “RPamide neuropeptides NLP-22 and NLP-2 act through GnRH-like receptors to promote sleep and wakefulness in C. elegans” (Scientific Reports, 2020).

Values joined by “and” are separate entries in the source; they are usually repeats but may differ in a detail not shown here. Equal entries are not always repeated. Where a SMILES comes first, the peptide text is derived from it.

Regarding `CC[C@H](C)[C@H](NC(=O)[C@@H](N)CO)C(=O)N[C@@H](C)C(=O)N[C@@H](CC(C)C)C(=O)NCC(=O)N[C@@H](CCCNC(=N)N)C(=O)N[C@@H](CO)C(=O)NCC(=O)N[C@@H](Cc1ccccc1)C(=O)N[C@@H](CCCNC(=N)N)C(=O)N1CCC[C@H]1C(N)=O` [NLP-2-1] (H-SIALGRSGFRP-NH2; N-terminus assumed), at GNRR-3, the EC50 (as a rule, the concentration that produces a half-maximal response) was determined as 81000 nM and the “Activation of GNRR-3 (in words)” value is recorded as “activated these receptors in a dose-dependent manner”. Besides, on GNRR-6, the EC50 is 135 nM and the “Activation of GNRR-6 (in words)” value was “activated these receptors in a dose-dependent manner”.

For `CSCC[C@H](NC(=O)[C@H](C)NC(=O)[C@H](CCSC)NC(=O)[C@@H](N)CO)C(=O)NCC(=O)N[C@@H](CCCNC(=N)N)C(=O)N[C@@H](CC(C)C)C(=O)NCC(=O)N[C@@H](CC(C)C)C(=O)N[C@@H](CCCNC(=N)N)C(=O)N1CCC[C@H]1C(N)=O` [NLP-2-2] (H-SMAMGRLGLRP-NH2; N-terminus assumed), on GNRR-3, the EC50 is 558 nM and the “Activation of GNRR-3 (in words)” value is given as “activated these receptors in a dose-dependent manner”. Further, at GNRR-6, the EC50 stood at 542 nM and the “Activation of GNRR-6 (in words)” value is on record as “activated these receptors in a dose-dependent manner”.

Consider `CSCC[C@H](NC(=O)[C@@H](N)CO)C(=O)N[C@@H](C)C(=O)N[C@@H](Cc1ccc(O)cc1)C(=O)NCC(=O)N[C@@H](CCCNC(=N)N)C(=O)N[C@@H](CCC(N)=O)C(=O)NCC(=O)N[C@@H](Cc1ccccc1)C(=O)N[C@@H](CCCNC(=N)N)C(=O)N1CCC[C@H]1C(N)=O` [NLP-2-3] (H-SMAYGRQGFRP-NH2; N-terminus assumed), for which, on GNRR-3, the EC50 was determined as 3300 nM and the “Activation of GNRR-3 (in words)” value is given as “activated these receptors in a dose-dependent manner”. Also, on GNRR-6, the EC50 came out at 169 nM and the “Activation of GNRR-6 (in words)” value is “activated these receptors in a dose-dependent manner”.

As to `CC[C@H](C)[C@H](NC(=O)[C@H](C)NC(=O)[C@@H](NC(=O)[C@@H](N)CO)[C@@H](C)CC)C(=O)NCC(=O)N[C@@H](CCCNC(=N)N)C(=O)N[C@@H](C)C(=O)NCC(=O)N[C@@H](Cc1ccccc1)C(=O)N[C@@H](CCCNC(=N)N)C(=O)N1CCC[C@H]1C(N)=O` [NLP-22] (H-SIAIGRAGFRP-NH2; N-terminus assumed), on GNRR-3, the EC50 was > 6000 nM and 6700 nM; the “Activation of GNRR-3 (in words)” value is reported as “activated these receptors in a dose-dependent manner”. On GNRR-6, the EC50 turned out to be 4.1 nM and the “Activation of GNRR-6 (in words)” value is reported as “activated these receptors in a dose-dependent manner”.

On to `CC[C@H](C)[C@H](NC(=O)[C@H](C)NC(=O)[C@H](CCSC)NC(=O)[C@@H](N)CO)C(=O)NCC(=O)N[C@@H](CCCNC(=N)N)C(=O)N[C@@H](C)C(=O)NCC(=O)N[C@@H](CCSC)C(=O)N[C@@H](CCCNC(=N)N)C(=O)N1CCC[C@H]1C(N)=O` [NLP-23-2] (H-SMAIGRAGMRP-NH2; N-terminus assumed), for which, at GNRR-3, the EC50 came out at 158 nM and the “Activation of GNRR-3 (in words)” value is “activated these receptors in a dose-dependent manner”. In addition, at GNRR-6, the 50% effective concentration (EC50) stood at 6 nM and the “Activation of GNRR-6 (in words)” value is reported as “activated these receptors in a dose-dependent manner”.

As to “LYISRQGFRPA [NLP-23-1, NLP-23 derived peptide … lacking the C-terminal glycine amidation target]”, at GNRR-3, the “Activation of GNRR-3 (in words)” value was “did not activate”. Moreover, the “Activation of GNRR-6 (in words)” value at GNRR-6 is given as “did not activate”.
